Tested on: rice
Experiment: Low temperature assay on rice seedlings
Format: in vivo
Procedure, shortened: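 Nine-day-old etiolated rice seedlings (grown on water at 30 °C±2 °C, dark) immersed in brassinolide analogues at 1–0.0001 mg/L or pure water, held at 1–5 °C for 24 hr. Plant height, leaf area, root weight read at 3, 6, 9, 12 days; leaf and tiller number at 12 days.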

SMILES: CC(C)[C@H](C)[C@@H](O)[C@H](O)[C@@H](C)[C@H]1CCC2C3COC(=O)C4C[C@H](O)[C@H](O)C[C@]4(C)C3CC[C@@]21C (some centres unmarked) [BR1]
- Height (0.01 mg/l, 3 °C, 9 days): 7.4 cm
- Weight of root (0.01 mg/l, 3 °C, 9 days): 2.9 g
- Area of leaf (0.01 mg/l, 3 °C, 12 days): 13.2 cm^2
- Height (0.01 mg/l, 3 °C, 12 days): 7.6 cm
- Number of leaf (0.01 mg/l, 3 °C, 12 days): 3
- Number of tiller (0.01 mg/l, 3 °C, 12 days): 2
- Weight of root (0.01 mg/l, 3 °C, 12 days): 2.9 g
- Area of leaf (0.01 mg/l, 4 °C, 3 days): 10.8 cm^2
- Height (0.01 mg/l, 4 °C, 3 days): 7.1 cm
- Weight of root (0.01 mg/l, 4 °C, 3 days): 2.5 g
- Area of leaf (0.01 mg/l, 4 °C, 6 days): 12.4 cm^2
- Height (0.01 mg/l, 4 °C, 6 days): 7.3 cm
- Weight of root (0.01 mg/l, 4 °C, 6 days): 2.6 g
- Area of leaf (0.01 mg/l, 4 °C, 9 days): 13.4 cm^2
- Height (0.01 mg/l, 4 °C, 9 days): 7.5 cm
- Weight of root (0.01 mg/l, 4 °C, 9 days): 2.9 g
- Area of leaf (0.01 mg/l, 4 °C, 12 days): 13.7 cm^2
- Height (0.01 mg/l, 4 °C, 12 days): 7.8 cm
- Number of leaf (0.01 mg/l, 4 °C, 12 days): 3
- Number of tiller (0.01 mg/l, 4 °C, 12 days): 2
- Weight of root (0.01 mg/l, 4 °C, 12 days): 3.0 g
- Area of leaf (0.01 mg/l, 5 °C, 3 days): 10.9 cm^2
- Height (0.01 mg/l, 5 °C, 3 days): 7.7 cm
- Weight of root (0.01 mg/l, 5 °C, 3 days): 2.8 g
- Area of leaf (0.01 mg/l, 5 °C, 6 days): 13.9 cm^2
- Height (0.01 mg/l, 5 °C, 6 days): 7.8 cm
- Weight of root (0.01 mg/l, 5 °C, 6 days): 3.0 g
- Area of leaf (0.01 mg/l, 5 °C, 9 days): 17.4 cm^2
- Height (0.01 mg/l, 5 °C, 9 days): 8.2 cm
- Weight of root (0.01 mg/l, 5 °C, 9 days): 3.4 g
- Area of leaf (0.01 mg/l, 5 °C, 12 days): 18 cm^2
- Height (0.01 mg/l, 5 °C, 12 days): 8.5 cm
- Number of leaf (0.01 mg/l, 5 °C, 12 days): 4
- Number of tiller (0.01 mg/l, 5 °C, 12 days): 3
- Weight of root (0.01 mg/l, 5 °C, 12 days): 3.9 g
- Area of leaf (0.1 mg/l, 1 °C, 3 days): 10.1 cm^2
- Height (0.1 mg/l, 1 °C, 3 days): 7.0 cm
- Weight of root (0.1 mg/l, 1 °C, 3 days): 2.8 g
- Area of leaf (0.1 mg/l, 1 °C, 6 days): 11.9 cm^2
- Height (0.1 mg/l, 1 °C, 6 days): 7.2 cm
- Weight of root (0.1 mg/l, 1 °C, 6 days): 3.0 g
- Area of leaf (0.1 mg/l, 1 °C, 9 days): 12.9 cm^2
- Height (0.1 mg/l, 1 °C, 9 days): 7.3 cm
- Weight of root (0.1 mg/l, 1 °C, 9 days): 3.4 g
- Area of leaf (0.1 mg/l, 1 °C, 12 days): 13.4 cm^2
- Height (0.1 mg/l, 1 °C, 12 days): 7.5 cm
- Number of leaf (0.1 mg/l, 1 °C, 12 days): 3
- Number of tiller (0.1 mg/l, 1 °C, 12 days): 3
- Weight of root (0.1 mg/l, 1 °C, 12 days): 3.6 g
- Area of leaf (0.1 mg/l, 2 °C, 3 days): 10.4 cm^2
- Height (0.1 mg/l, 2 °C, 3 days): 7.1 cm
- Weight of root (0.1 mg/l, 2 °C, 3 days): 2.9 g
- Area of leaf (0.1 mg/l, 2 °C, 6 days): 11.8 cm^2
- Height (0.1 mg/l, 2 °C, 6 days): 7.2 cm
- Weight of root (0.1 mg/l, 2 °C, 6 days): 3.0 g
- Area of leaf (0.1 mg/l, 2 °C, 9 days): 12.8 cm^2
- Height (0.1 mg/l, 2 °C, 9 days): 7.3 cm
- Weight of root (0.1 mg/l, 2 °C, 9 days): 3.1 g
- Area of leaf (0.1 mg/l, 2 °C, 12 days): 13.6 cm^2
- Height (0.1 mg/l, 2 °C, 12 days): 7.4 cm
- Number of leaf (0.1 mg/l, 2 °C, 12 days): 3
- Number of tiller (0.1 mg/l, 2 °C, 12 days): 3
- Weight of root (0.1 mg/l, 2 °C, 12 days): 3.2 g
- Area of leaf (0.1 mg/l, 3 °C, 3 days): 10.5 cm^2
- Height (0.1 mg/l, 3 °C, 3 days): 7.2 cm
- Weight of root (0.1 mg/l, 3 °C, 3 days): 2.5 g
- Area of leaf (0.1 mg/l, 3 °C, 6 days): 12 cm^2
- Height (0.1 mg/l, 3 °C, 6 days): 7.3 cm
- Weight of root (0.1 mg/l, 3 °C, 6 days): 2.6 g
- Area of leaf (0.1 mg/l, 3 °C, 9 days): 12.8 cm^2
- Height (0.1 mg/l, 3 °C, 9 days): 7.4 cm
- Weight of root (0.1 mg/l, 3 °C, 9 days): 2.9 g
- Area of leaf (0.1 mg/l, 3 °C, 12 days): 13.4 cm^2
- Height (0.1 mg/l, 3 °C, 12 days): 7.6 cm
- Number of leaf (0.1 mg/l, 3 °C, 12 days): 3
- Number of tiller (0.1 mg/l, 3 °C, 12 days): 2
- Weight of root (0.1 mg/l, 3 °C, 12 days): 2.9 g
- Area of leaf (0.1 mg/l, 4 °C, 3 days): 10.8 cm^2
- Height (0.1 mg/l, 4 °C, 3 days): 7.1 cm
- Weight of root (0.1 mg/l, 4 °C, 3 days): 2.5 g
- Area of leaf (0.1 mg/l, 4 °C, 6 days): 12.5 cm^2
- Height (0.1 mg/l, 4 °C, 6 days): 7.4 cm
- Weight of root (0.1 mg/l, 4 °C, 6 days): 2.7 g
- Area of leaf (0.1 mg/l, 4 °C, 9 days): 13.5 cm^2
- Height (0.1 mg/l, 4 °C, 9 days): 7.5 cm
- Weight of root (0.1 mg/l, 4 °C, 9 days): 2.9 g
- Area of leaf (0.1 mg/l, 4 °C, 12 days): 13.8 cm^2
- Height (0.1 mg/l, 4 °C, 12 days): 7.7 cm
- Number of leaf (0.1 mg/l, 4 °C, 12 days): 3
- Number of tiller (0.1 mg/l, 4 °C, 12 days): 2
- Weight of root (0.1 mg/l, 4 °C, 12 days): 3.1 g
- Area of leaf (0.1 mg/l, 5 °C, 3 days): 11.1 cm^2
- Height (0.1 mg/l, 5 °C, 3 days): 7.7 cm
- Weight of root (0.1 mg/l, 5 °C, 3 days): 2.9 g
- Area of leaf (0.1 mg/l, 5 °C, 6 days): 13.9 cm^2
- Height (0.1 mg/l, 5 °C, 6 days): 7.9 cm
- Weight of root (0.1 mg/l, 5 °C, 6 days): 3.2 g
- Area of leaf (0.1 mg/l, 5 °C, 9 days): 17.8 cm^2
- Height (0.1 mg/l, 5 °C, 9 days): 8.4 cm
- Weight of root (0.1 mg/l, 5 °C, 9 days): 3.5 g
- Area of leaf (0.1 mg/l, 5 °C, 12 days): 19 cm^2
- Height (0.1 mg/l, 5 °C, 12 days): 8.7 cm
- Number of leaf (0.1 mg/l, 5 °C, 12 days): 3
- Number of tiller (0.1 mg/l, 5 °C, 12 days): 2
- Weight of root (0.1 mg/l, 5 °C, 12 days): 4.1 g
- Area of leaf (1 mg/l, 1 °C, 3 days): 10 cm^2
- Height (1 mg/l, 1 °C, 3 days): 7.1 cm
- Weight of root (1 mg/l, 1 °C, 3 days): 2.8 g
- Area of leaf (1 mg/l, 1 °C, 6 days): 11.2 cm^2
- Height (1 mg/l, 1 °C, 6 days): 7.2 cm
- Weight of root (1 mg/l, 1 °C, 6 days): 3.1 g
- Area of leaf (1 mg/l, 1 °C, 9 days): 12.4 cm^2
- Height (1 mg/l, 1 °C, 9 days): 7.3 cm
- Weight of root (1 mg/l, 1 °C, 9 days): 3.4 g
- Area of leaf (1 mg/l, 1 °C, 12 days): 13 cm^2
- Height (1 mg/l, 1 °C, 12 days): 7.4 cm
- Number of leaf (1 mg/l, 1 °C, 12 days): 3
- Number of tiller (1 mg/l, 1 °C, 12 days): 3
- Weight of root (1 mg/l, 1 °C, 12 days): 3.9 g
- Area of leaf (1 mg/l, 2 °C, 3 days): 10.2 cm^2
- Height (1 mg/l, 2 °C, 3 days): 7.1 cm
- Weight of root (1 mg/l, 2 °C, 3 days): 2.8 g
- Area of leaf (1 mg/l, 2 °C, 6 days): 11.7 cm^2
- Height (1 mg/l, 2 °C, 6 days): 7.2 cm
- Weight of root (1 mg/l, 2 °C, 6 days): 3.0 g
- Area of leaf (1 mg/l, 2 °C, 9 days): 12.6 cm^2
- Height (1 mg/l, 2 °C, 9 days): 7.3 cm
- Weight of root (1 mg/l, 2 °C, 9 days): 3.2 g
- Area of leaf (1 mg/l, 2 °C, 12 days): 13 cm^2
- Height (1 mg/l, 2 °C, 12 days): 7.5 cm
- Number of leaf (1 mg/l, 2 °C, 12 days): 3
- Number of tiller (1 mg/l, 2 °C, 12 days): 3
- Weight of root (1 mg/l, 2 °C, 12 days): 3.9 g
- Area of leaf (1 mg/l, 3 °C, 3 days): 10.4 cm^2
- Height (1 mg/l, 3 °C, 3 days): 7.1 cm
- Weight of root (1 mg/l, 3 °C, 3 days): 2.5 g
- Area of leaf (1 mg/l, 3 °C, 6 days): 12 cm^2
- Height (1 mg/l, 3 °C, 6 days): 7.2 cm
- Weight of root (1 mg/l, 3 °C, 6 days): 2.6 g
- Area of leaf (1 mg/l, 3 °C, 9 days): 12.6 cm^2
- Height (1 mg/l, 3 °C, 9 days): 7.5 cm
- Weight of root (1 mg/l, 3 °C, 9 days): 2.9 g
- Area of leaf (1 mg/l, 3 °C, 12 days): 13.2 cm^2
- Height (1 mg/l, 3 °C, 12 days): 7.6 cm
- Number of leaf (1 mg/l, 3 °C, 12 days): 3
- Number of tiller (1 mg/l, 3 °C, 12 days): 2
- Weight of root (1 mg/l, 3 °C, 12 days): 2.9 g
- Area of leaf (1 mg/l, 4 °C, 3 days): 10.9 cm^2
- Height (1 mg/l, 4 °C, 3 days): 7.1 cm
- Weight of root (1 mg/l, 4 °C, 3 days): 2.5 g
- Area of leaf (1 mg/l, 4 °C, 6 days): 12.6 cm^2
- Height (1 mg/l, 4 °C, 6 days): 7.5 cm
- Weight of root (1 mg/l, 4 °C, 6 days): 2.7 g
- Area of leaf (1 mg/l, 4 °C, 9 days): 13.7 cm^2
- Height (1 mg/l, 4 °C, 9 days): 7.6 cm
- Weight of root (1 mg/l, 4 °C, 9 days): 3.0 g
- Area of leaf (1 mg/l, 4 °C, 12 days): 14 cm^2
- Height (1 mg/l, 4 °C, 12 days): 7.7 cm
- Number of leaf (1 mg/l, 4 °C, 12 days): 3
- Number of tiller (1 mg/l, 4 °C, 12 days): 2
- Weight of root (1 mg/l, 4 °C, 12 days): 3.2 g
- Area of leaf (1 mg/l, 5 °C, 3 days): 11.1 cm^2
- Height (1 mg/l, 5 °C, 3 days): 7.7 cm
- Weight of root (1 mg/l, 5 °C, 3 days): 2.9 g
- Area of leaf (1 mg/l, 5 °C, 6 days): 13.6 cm^2
- Height (1 mg/l, 5 °C, 6 days): 8.0 cm
- Weight of root (1 mg/l, 5 °C, 6 days): 3.5 g
- Area of leaf (1 mg/l, 5 °C, 9 days): 18.4 cm^2
- Height (1 mg/l, 5 °C, 9 days): 8.6 cm
- Weight of root (1 mg/l, 5 °C, 9 days): 3.7 g
- Area of leaf (1 mg/l, 5 °C, 12 days): 20 cm^2
- Height (1 mg/l, 5 °C, 12 days): 8.9 cm
- Number of leaf (1 mg/l, 5 °C, 12 days): 3
- Number of tiller (1 mg/l, 5 °C, 12 days): 2
- Weight of root (1 mg/l, 5 °C, 12 days): 4.5 g
- Effects on resistance to low temperature compared among analogues (in vivo): more than those of BR2, BR3 and BR4

Reference: patent US9326506B2, “Preparation method, agricultural composition and applications of natural brassinolide analogs” (CHENGDU NEWSUN CROPSCIENCE CO., LTD, priority 2012, dated 2016)
